Columns and labels:
MCF7 cells = test: MCF7 proliferation in response to E2 or insulin; type: cell-based; conditions: SERMs and SERDs 10^-6 M, insulin 2×10^-9 M
Procedure: The expression of ESR1 target genes responsive to (FIG. 10A) agonists, (FIG. 10B) primarily SERMs, or (FIG. 10C) SERMs and agonists was analyzed as in FIG. 5. Relative changes of these and additional target genes designed to evaluate dose dependent response to RAD1901 are presented in FIG. 11. Significant target gene regulation (*p<0.05) as compared to the vehicle control was detected by 2 way ANOVA followed by Fisher's LSD (Graphpad Prism 6). […] Triplicate wells of SKBR3 cells were transfected with plasmids expressing ESR1 fused to VP16 together with Gal4DBD alone (control) or Gal4DBD fused to ESR1 interacting peptides noted on the horizontal axis. Cells were then treated with the indicated ESR1 ligands (10^−7 M unless otherwise indicated). Interaction of ESR1 with the Gal4DBD peptide constructs was detected through activation of a Gal4-responsive luciferase reporter construct and was normalized to detected β-galactosidase activity expressed in a constitutive manner using a second vector. Normalized response was expressed as fold increase over the detected level of interaction between Gal4DBD alone and ESR1-VP16 in the absence of ligand (Veh). For FIG. 10E, the effect of SERMs and SERDs (10^−6 M) on the proliferation of MCF7 cells in response to E2 (10^−9 M) or insulin (2×10^−9 M) was evaluated as in FIG. 5. Statistically similar treatments (2-way ANOVA followed by Bonferroni comparison) are indicated by letters. […] The expression of ESR1 target genes responsive to (A) agonists, (B) primarily SERMs, or (C) SERMs and agonists was analyzed using RT qPCR following RNA isolation. mRNA expression was normalized (ΔΔCT analysis) to the similarly detected 36B4 housekeeping. The profiles presented in dendogram format were analyzed with the Ward hierarchical clustering algorithm (JMP 11) using standardized data.

ESR1 = molecular target: T1, ESR1 (Homo sapiens, UniProt P03372); test: ESR1 expression in LTED MCF7 cells (immunoblot); type: cell-based; conditions: 24 hours, SERDs 10^-6 M
T1 sequence (P03372 1-595): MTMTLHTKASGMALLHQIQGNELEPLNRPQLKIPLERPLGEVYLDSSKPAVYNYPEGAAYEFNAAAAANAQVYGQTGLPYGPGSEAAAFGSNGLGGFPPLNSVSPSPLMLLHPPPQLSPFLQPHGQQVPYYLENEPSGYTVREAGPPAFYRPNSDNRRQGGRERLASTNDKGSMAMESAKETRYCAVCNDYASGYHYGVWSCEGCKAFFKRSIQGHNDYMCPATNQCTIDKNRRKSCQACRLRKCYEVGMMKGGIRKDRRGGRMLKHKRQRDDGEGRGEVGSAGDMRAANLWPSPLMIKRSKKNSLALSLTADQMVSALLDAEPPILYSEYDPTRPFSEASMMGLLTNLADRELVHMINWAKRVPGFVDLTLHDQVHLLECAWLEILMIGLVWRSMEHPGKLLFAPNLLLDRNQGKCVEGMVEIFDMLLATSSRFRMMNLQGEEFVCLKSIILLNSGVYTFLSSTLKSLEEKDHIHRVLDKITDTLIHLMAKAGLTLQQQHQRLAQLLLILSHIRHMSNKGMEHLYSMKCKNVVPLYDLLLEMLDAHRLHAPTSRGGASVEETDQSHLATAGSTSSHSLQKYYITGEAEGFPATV
Procedure: MCF7 and SKBR3 cell lines were maintained in DMEM/F12 or RPMI media (Invitrogen), respectively, supplemented with 8% fetal bovine serum (FBS, Gemini), non-essential amino acids (Invitrogen), and sodium pyruvate (Invitrogen). Unless otherwise indicated, cells were plated for experiments in media lacking phenol red and supplemented with 8% charcoal stripped FBS (CFS, Gemini). LTED MCF7 cells were maintained and plated for experiments in phenol red free DMEM/F12 media supplemented with 8% CFS that had been charcoal stripped twice. 48 hours after plating, cells were treated with ESR1 ligands as indicated, and were harvested for immunoblot or real time quantitative PCR analysis 24 hours after treatment.
Expression of ESR1 and loading control cytokeratin 18 (CK18—FIG. 7A) in whole cell extracts were detected by immunoblot (top). ESR1 levels relative to CK18 were quantitated by densitometry using Adobe Photoshop (bottom). […] ESR1 expression was detected as in FIG. 6A. For FIGS. 6C-6D, LTED MCF7 cells were plated in phenol red free media supplemented with FBS that was stripped of growth factors twice using charcoal. For FIG. 6C, after 48 hours, cells were treated for 24 hours with E2 (10^−7 M) or SERDs (10^−6 M) and ESR1 was analyzed as in FIG. 6A.

LTED MCF7 cells = test: LTED MCF7 cell proliferation assay; type: cell-based; conditions: model of aromatase resistance, 10^-11-10^-6 M, 8 day assay
MCF7 xenograft tumors = test: MCF7 xenograft tumor study in estrogen-treated ovariectomized nu/nu mice; type: in vivo; conditions: 20 mg/kg sc daily
Procedure: A total of 90 female Nu/Nu mice were ovariectomized and implanted subcutaneous simultaneously with an estrogen pellet (Innovative Research of America) releasing 0.72 mg estradiol (E2) over 60 days. 2 days later an approximately 6 mm^3 fragment of an MCF7 xenograft tumor (isolated from a recently sacrificed estrogen treated nu/nu mouse) was inserted subcutaneous into the axial mammary gland. Tumor growth (by caliper measurement) and animal body weight were monitored 3× weekly until tumor volume reached ˜0.2 cm^3. […] Treatments were formulated in sterile corn oil and were administered daily by subcutaneous injection. After 3 weeks of treatments, animals were euthanized and serum and tissues saved for analysis. FIG. 1B depicts tumor volume analyzed using non-linear curve fit and exponential growth calculation (Graphpad Prism), followed by two-way ANOVA and Bonferroni analysis.
Xenograft tumor analysis: Estrogen-stimulated MCF7 tumors were initiated in the axial mammary gland of 6-week old estrogen-treated (0.72 mg/60 days pellet sc, Innovative Research of America) ovariectomized female NU/NU mice (in-house colony) by serial transfer and were measured as described (Wardell et al., (2013) Clin Cancer Res 19 (9):2420-2431). […] Animal tissues were processed and analyzed as described (Wardell et al., (2013) Clin Cancer Res 19 (9):2420-2431).
The ability of RAD1901 (FIG. 5A) to modulate the […] estradiol (E2) dependent transcriptional activity of the human estrogen receptor alpha (ESR1) and human estrogen receptor beta (ESR2) was assessed in transiently transfected SKBR3 cells using a synthetic reporter gene. […] DNA content as assessed by fluorescence was measured as a surrogate for cell proliferation. The relative increase in DNA fluorescence was calculated by normalizing to baseline values detected in a duplicate plate of cells that was harvested on day 1 prior to the initial treatment. […] For FIG. 5F, expression of ESR1 target genes in tumors was analyzed essentially as in (C).

| Compound | insulin-stimulated proliferation (MCF7 cells) | ESR1 expression levels (ESR1) | cell proliferation (LTED MCF7 cells) | expression of ESR1-target genes PGR and FHL1 in treated tumors (MCF7 xenograft tumors) |
| --- | --- | --- | --- | --- |
| 4-hydroxytamoxifen [4OHT] | without effect |  |  |  |
| C[C@]12CC[C@@H]3c4ccc(O)cc4C[C@@H](CCCCCCCCC[S+]([O-])CCCC(F)(F)C(F)(F)F)[C@H]3[C@@H]1CC[C@@H]2O (stereo partly shown) [ICI, ICI 182,780] | efficiently inhibited | downregulated ESR1 expression | inhibited cell proliferation |  |
| O=C(c1ccc(OCCN2CCCCC2)cc1)c1c(-c2ccc(O)cc2)sc2cc(O)ccc12 [Ralox, raloxifene] | without effect |  |  |  |
| CC/C(=C(\c1ccccc1)c1ccc(OCCN(C)C)cc1)c1ccccc1 [tamoxifen, reference compound] |  |  | minimally effective | suppress the expression of the ESR1-target genes PGR and FHL1 to the same degree |
